Results published in patent publication US6297216A, “Compounds for reversing drug resistance” (Solvo Biotechnology, priority 1997, dated 2001).
Where two headings read alike, the source gives them in different places. Peptide text beside a SMILES is read from it. * marks the point of attachment. Cbz = O=C(OCc1ccccc1)*; Boc = CC(C)(C)OC(=O)*; OBn = c1ccc(CO*)cc1; OtBu = CC(C)(C)O*

How the values were obtained:
[1] = tested on: multidrug-resistant human tumor cell lines; assay: Enhancement of cytotoxicity of drugs in multidrug-resistant human tumor cell lines; format: cell-based; details: K562 MDR and KBV1 sublines, FIGS. 10-11
Description: (§1) NIH 3T3 cells were cultured under standard conditions in D-MEM medium. MDR1-transfected cells (NIH MDR1 G185) were prepared and characterized for their drug-resistant properties as described (Ambdukar et al. Proc. Natl. Acad. Sci. USA 89:8472-8476, 1992; Bruggemann et al. J. Biol. Chem. 267:21020-21026, 1992; Sarkadi et al. 1992 supra). Before each experiment the cells were trypsinized, then washed and stored in D-MEM medium at 37° C. KBV1 (MDR1^+) and KB3 (MDR1^-) human tumor cells were also cultured in D-MEM, which K562 human tumor cells were grown in RPMI medium, supplemented with 10% FCS.
Another method for assessing the ability of Reversins to inhibit drug resistance is to measure the cytotoxicity of drugs in multidrug-resistant human tumor cell lines. Since MDR1 normally lowers the concentration of cytotoxic agents to subtoxic concentrations by extruding them from the cell, inhibition of MDR1 would be expected to enhance cytotoxicity.
In these studies, adriamycin, vincristine, and vinblastine, in originally ineffective concentrations, become effectively cytotoxic in the presence of 1-10 μg/ml of Reversins 121 or 205. FIGS. 10A and 10B present such an experiment for Reversin 205 using K562 human erythroblastoid tumor cells and their adriamycin-selected multidrug-resistant subline. […]

KBV1 cells = assay: Cytotoxicity of Reversin alone in multidrug-resistant KBV1 cells; format: cell-based, human; details: MDR1-expressing cells, FIG. 11(A)
Description: as §1
In these studies, adriamycin, vincristine, and vinblastine, in originally ineffective concentrations, become effectively cytotoxic in the presence of 1-10 μg/ml of Reversins 121 or 205. FIGS. 10A and 10B present such an experiment for Reversin 205 using K562 human erythroblastoid tumor cells and their adriamycin-selected multidrug-resistant subline. FIGS. 11A and 11B are similar experiments with the […] tumor cells KB3 and KBV1, the latter being a multidrug resistant subline. […] Such a collateral toxic effect (which may be due to the ATP-consuming futile functioning of the drug transporter) can be greatly advantageous in treating drug-resistant tumors.

[2] = In vivo acute and subacute toxicity; design: species or system rat; details: rats, two-week follow-up
Description: The safety of Reversins for human administration can be confirmed in appropriate animal models. For example, the in vivo acute and subacute toxicity of Reversins was examined in laboratory rats. Reversins 121 and 205 solutions were prepared and administered as follows. Type A solutions contained 50 μg/ml Reversin 121 or 205 in 20% ethanol in physiological saline. Type B solutions contained 1 mg/ml in glycerol, containing 10% ethanol. Type A solutions (0.5 ml) were administered intravenously to three laboratory rats weighing 200-250 g each (about 100-125 μg/kg) twice daily for 3 days. Type B solutions (0.5 ml) were given to similar rats (2-2.5 mg/kg) by intraperitoneal injection, twice daily for three days. Control rats received the same solutions without the Reversins.

MDR1 [3] = molecular target: T1, MDR1 (Homo sapiens, UniProt P08183)
T1 sequence (P08183 whole entry): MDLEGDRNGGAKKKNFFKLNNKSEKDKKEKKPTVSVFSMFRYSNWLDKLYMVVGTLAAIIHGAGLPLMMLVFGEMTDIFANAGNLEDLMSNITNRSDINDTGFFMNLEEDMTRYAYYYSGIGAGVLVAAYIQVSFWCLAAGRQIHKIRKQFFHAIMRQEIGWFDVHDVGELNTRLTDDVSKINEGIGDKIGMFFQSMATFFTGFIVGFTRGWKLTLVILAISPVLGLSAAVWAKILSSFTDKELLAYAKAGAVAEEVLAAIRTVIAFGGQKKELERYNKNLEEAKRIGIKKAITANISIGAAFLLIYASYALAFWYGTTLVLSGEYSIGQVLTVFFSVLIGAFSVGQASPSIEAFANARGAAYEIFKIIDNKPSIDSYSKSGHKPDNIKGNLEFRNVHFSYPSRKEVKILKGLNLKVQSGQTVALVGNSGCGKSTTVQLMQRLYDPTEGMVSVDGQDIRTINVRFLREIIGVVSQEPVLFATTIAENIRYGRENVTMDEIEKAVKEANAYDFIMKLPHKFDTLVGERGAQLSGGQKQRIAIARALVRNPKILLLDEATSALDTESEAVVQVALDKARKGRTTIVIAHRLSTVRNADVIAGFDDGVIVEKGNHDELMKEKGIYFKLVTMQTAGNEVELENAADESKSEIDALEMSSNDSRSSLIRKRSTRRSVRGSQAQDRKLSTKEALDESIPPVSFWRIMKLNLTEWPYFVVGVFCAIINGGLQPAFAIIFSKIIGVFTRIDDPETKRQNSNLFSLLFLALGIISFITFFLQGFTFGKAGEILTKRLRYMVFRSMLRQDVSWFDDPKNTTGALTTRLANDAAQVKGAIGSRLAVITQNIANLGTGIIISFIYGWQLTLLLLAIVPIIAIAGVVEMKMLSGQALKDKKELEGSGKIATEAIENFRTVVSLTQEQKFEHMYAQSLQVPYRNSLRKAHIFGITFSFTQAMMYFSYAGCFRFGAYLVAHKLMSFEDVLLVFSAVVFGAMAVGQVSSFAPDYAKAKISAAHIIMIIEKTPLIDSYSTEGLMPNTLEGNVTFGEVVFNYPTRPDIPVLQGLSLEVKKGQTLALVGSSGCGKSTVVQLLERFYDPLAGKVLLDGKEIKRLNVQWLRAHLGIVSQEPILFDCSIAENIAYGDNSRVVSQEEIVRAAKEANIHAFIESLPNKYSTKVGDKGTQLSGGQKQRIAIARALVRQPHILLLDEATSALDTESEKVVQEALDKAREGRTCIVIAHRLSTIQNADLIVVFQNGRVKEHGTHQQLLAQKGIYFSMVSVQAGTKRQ

MDR1 [4] = molecular target: T1, MDR1; remark: listed apart in the source
Description: (§5) The second assay is based on the measurement of fluorescent dye uptake into intact cells. […] These hydrophobic dye esters are non-fluorescent outside the cell are cleaved by intracellular esterases into hydrophilic fluorescent free acids.

MDR1 [5] = molecular target: T1, MDR1; assay: Flow-cytometric fluorescent dye uptake in multidrug-resistant leukocytes of a leukemic patient; format: cell-based; design: endogenous in cells; host or cells: white blood cells isolated from the blood of a leukemic patient; details: 5 μM, 37° C., 10 minutes, FIG. 8
Description: Fluorescence measurements were done in 60 sec scanning periods using a Cytoronabsolut instrument (Ortho Diagnostic Systems, NJ). The excitation was set to 488 nm. Green fluorescence was measured with a filter with a range of 515-548 nm, while red fluorescence was measured above 620 nm.
By using the some fluorescent dye extrusion assay described above the in vitro effects of Reversins on the multidrug-resistant leukocytes of a leukemic patient were studied. Cells were isolated by withdrawing blood from the patient, and isolating white blood cells by centrifugation. Cells can be isolated from other types of tumors by biopsy. A flow cytometer was used to measure fluorescent dye loading of individual cells, which had been previously shown to express MDR1, in the absence or presence of Reversin 205 (FIG. 8). The uptake of fluorescent dye under these conditions models the uptake of cytotoxic drugs into the tumor cells. Fluorescent dye uptake was measured at 37° C. for 10 minutes. […] Further details for the method are provided by Hollo et al., supra.

control P388 cells = assay: Mouse P388 leukemia model, survival; format: in vivo; details: 1 mg/kg/day for 6 days, mice injected with control P388 cells
Excerpt: (§2) In vivo animal studies for the effectiveness of Reversins can be conducted using any suitable animal model system known to those skilled in the art. One example of an appropriate system is the mouse P388 leukemia model system (Tsurouo et al., supra). This animal model is widely accepted for testing the effect of cytotoxic antileukemic agents or response-modifier compounds.
(§3) Inbred (DBA×black F1) mice received 10^6 P388 leukemia cells by intraperitoneal injection. The survival of the mice was followed. The mice were injected with control P388 cells, as well as with P388 cells that had been selected under drug exposure. Drug exposure induced over-expression of the MDR1 protein (P388-MDR cells).
(§4) The mice injected with the P388 cells were treated with doxorobicin (adriamycin) in a dose of 1 mg/kg/day for 6 days after the injection of the P388 cells. […] Reversin can be administered to the animals in a dose of 2 mg/kg, a level which has no toxic effect on the control animals, as discussed above.

P388-MDR cells = assay: Mouse P388-MDR leukemia model, survival; format: in vivo; details: 1 mg/kg/day for 6 days, mice injected with P388-MDR cells
Excerpt: as §2, §3, §4

control NIH 3T3 cells = assay: Fluorescent dye accumulation in fibroblasts which do not overexpress MDR1; format: cell-based, mouse; details: fibroblasts which do not overexpress MDR1, FIG. 6
Description: NIH 3T3 cells were cultured under standard conditions in D-MEM medium. […] Before each experiment the cells were trypsinized, then washed and stored in D-MEM medium at 37° C. KBV1 (MDR1^+) and KB3 (MDR1^-) human tumor cells were also cultured in D-MEM, which K562 human tumor cells were grown in RPMI medium, supplemented with 10% FCS.
Human MDR1-transfected mouse fibroblasts and MDR1-expressing human tumor cells actively extrude the AM forms of several fluorescent indicators, lowering the level of intracellular fluorescence in cells with active multidrug transport.
Dye uptake was measured by incubating 2×10^6 cells/ml D-MEM medium at 37° C. in the presence of 0.5 μM Fura-2 AM (added in 5 mM stock solution in DMSO), then rapidly spinning the cells (15 sec, 12,000×g), and rinsing the pellet with HPM1 medium (containing 120 mM NaCl, 5 mM kcl, 0.4 mM MgCl2, 0.04 mM CaCl2, 10 mM HEPES-Na (pH 7.4), 10 mM NaHCO3, 10 mM glucose, and 5 mM Na2 HPO4). The cells were resuspended in 2 ml HPM1 and fluorescence was measured with rapid stirring in a Hitachi F-4000 fluorescent spectrophotometer. The excitation wavelength was 340 nm, and emission was measured at 410 nm. Maximum fluorescence and dye concentration were measured after the addition of 0.5% Triton X-100 and 2 mM CaCl2 to the medium. The dye concentration was calibrated based on the measurements of free acid dye fluorescence in the same instrument under identical conditions.

MDR1 [6] = molecular target: T1, MDR1; assay: Fluorescent dye (Fura-2 AM) extrusion assay in MDR1-transfected NIH 3T3 fibroblasts; details: MDR1-expressing fibroblasts, FIG. 6
Description: as §5

[7] = intraperitoneal, 2-2.5 mg/kg twice daily for three days
[8] = intravenous, about 100-125 μg/kg twice daily for 3 days

CC(C)(C)OC(=O)N[C@@H](CC(=O)OCc1ccccc1)C(=O)N[C@@H](CCCCNC(=O)OCc1ccccc1)C(=O)OC(C)(C)C [Reversin 121, BOC-Asp(OBzl)-Lys(Z)-OtBu] (Boc-Asp(OBn)-Lys(Cbz)-OtBu)
Reversin concentration at which originally ineffective adriamycin, vincristine and vinblastine become effectively cytotoxic [1]: 1 to 10 µg/mL
cytotoxicity without vinblastine (KBV1 cells): cytotoxic
acute or subacute toxicity [2, 7]: no acute or subacute toxicity
acute or subacute toxicity [2, 8]: no acute or subacute toxicity
half-maximal activating concentration (Ka) of MDR1-ATPase (MDR1 [3]): approximately 60 nM
stimulation of MDR1-ATPase (MDR1 [3]): greatly stimulated
inhibition of Fura2-AM dye extrusion (MDR1 [4]): inhibit this dye extrusion

COC(=O)[C@H](CCCCNC(=O)[C@H](CCC(=O)OCc1ccccc1)NC(=O)OC(C)(C)C)NC(=O)[C@H](CCC(=O)OCc1ccccc1)NC(=O)OC(C)(C)C [Reversin 205, N^α, N^ε -bis[BOC-Glu(OBzl)]-Lys-OMe]
Reversin concentration at which originally ineffective adriamycin, vincristine and vinblastine become effectively cytotoxic [1]: 1 to 10 µg/mL
acute or subacute toxicity [2, 7]: no acute or subacute toxicity
acute or subacute toxicity [2, 8]: no acute or subacute toxicity
concentration giving strong inhibition of the MDR1-ATPase (MDR1 [3]): above 1 μM
half-maximal activating concentration (Ka) of MDR1-ATPase (MDR1 [3]): about 30 nM
stimulation of MDR1-ATPase (MDR1 [3]): greatly stimulated
inhibition of Fura2-AM dye extrusion (MDR1 [4]): inhibit this dye extrusion
dye extrusion by MDR1 (MDR1 [5]): blocked dye extrusion
fluorescent dye uptake (MDR1 [5]): significantly increased

COc1cccc2c1C(=O)c1c(O)c3c(c(O)c1C2=O)C[C@@](O)(C(=O)CO)C[C@@H]3O[C@H]1C[C@H](N)[C@H](O)[C@H](C)O1 [adriamycin]
survival time (control P388 cells): > 30 days
prolongation of lifetime (P388-MDR cells): did not significantly prolong

C=C[C@H]1C[N@@]2CC[C@H]1C[C@H]2[C@H](O)c1ccnc2ccc(OC)cc12 [quinine, reference compound]
stimulation of MDR1-ATPase (MDR1 [3]): stimulated

[Na+].[Na+].[Na+].[O]=[V]([O-])([O-])[O-] [sodium orthovanadate]
effect on dye accumulation (control NIH 3T3 cells): no effect
block of MDR1-specific dye-AM extrusion (MDR1 [6]): blocked

COc1ccc(CCN(C)CCCC(C#N)(c2ccc(OC)c(OC)c2)C(C)C)cc1OC (centres unmarked) [verapamil]
effect on dye accumulation (control NIH 3T3 cells): no effect

CC[C@]1(O)C[C@H]2CN(CCc3c([nH]c4ccccc34)[C@@](C(=O)OC)(c3cc4c(cc3OC)N(C=O)[C@H]3[C@@](O)(C(=O)OC)[C@H](OC(C)=O)[C@]5(CC)C=CCN6CC[C@]43[C@@H]65)C2)C1 [vincristine, reference compound]
effect on dye accumulation (control NIH 3T3 cells): no effect
stimulation of MDR1-ATPase (MDR1 [3]): stimulated
block of MDR1-specific dye-AM extrusion (MDR1 [4]): blocked
inhibition of Fura2-AM dye extrusion (MDR1 [4]): inhibit this dye extrusion
